Measurements reported in patent US12410174B1, “Small molecular inhibitors of sting signaling compositions and methods of use” (TYERELL IMMUNOTHERAPEUTICS INC, priority 2020, dated 2025).
“Also recorded” adds a separate entry of the source.

What was measured:
STING signaling [1] = assay: Luciferase live cell assay, type I IFN promoter in hTERT-pIFNβ-Glu cells after ISD transfection; assay type: cell-based, human; conditions: hTERT-pIFNβ-Glu cells
Experimental: Inhibition of IFNβ expression was measured by Luciferase induction at 24 hours after transfection of ISD, Mock is shown (210), ISD treatment only (220) was used as a control, according to an embodiment of the invention;
Example 1: Identification of small molecule antagonists of STING. In the presence of cytosolic DNA species, STING becomes activated to drive the transcription of cytokines such as type I IFN. Compounds binding to STING via TSA were subsequently examined for their ability to prevent cytosolic DNA species from activating the type I interferon (IFN) promoter, using a live cell assay. This assay comprised immortalized human fibroblasts that were stably transfected with the type I IFN promoter driving luciferase as well as the CMV promoter driving SEAP (hTERT-pIFNβ-Glu). The live cell assay has previously been disclosed in PCT/JS2019/025380 entitled IFN-βETA REPORTER SYSTEM FOR IMMORTALIZED PRIMARY CELLS inventor Glen N. Barber, which was filed Apr. 2, 2018 and published as WO2019195285, and which is herein incorporated by reference in its entirety and for all purposes. The ability of the small molecules to prevent activation of the type I IFN promoter and the transcription of luciferase, but not SEAP in response to cytosolic DNA species was assessed. The activation of STING, typically by CDNs, in turn activates the transcription factors NF-κB and IRF3, both of which are required to induce the transcriptional stimulation of the Type I IFN promoter, but not the CMV promoter as IRF3 and NF-kB transcription factor binding sites are not contained in the CMV promoter. The assay identified the small molecule Compound Y1 in the first screen (HTS), where the level of luciferase was not able to activate the type I IFN promoter or induce the expression of luciferase (see Table I).
Example 4: hTERT-BJ1 Telomerase Fibroblasts (hTERT) were originally purchased from Clontech and were cultured in 4:1 ratio of DMEM:Medium 199 supplement with 10% FBS, 4 mM L-Glutamine and 1 mM sodium pyruvate at 37° C. in a 5% CO2-humidified atmosphere. hTERT-BJ1 Telomerase Fibroblasts stably expressing the luciferase gene under the control of the interferon-beta promoter and SEAP gene under control of the CMV promoter) (hTERT-pIFNβ-Glu) were generated by the Barber laboratory.
Example 7: Luciferase assay: hTERT-BJ1 Telomerase Fibroblasts stably expressing the luciferase gene under the control of the interferon-beta promoter and SEAP gene under control of the CMV promoter) (hTERT-pIFNβ-Glu) were generated by the Barber laboratory. Luciferase assay was performed using Secrete-Pair Dual Luminescence Assay Kit from GeneCopoeia following the manufacturer's protocol.

STING signaling [2] = assay: Western blot of STING, TBK1 and IRF3 phosphorylation in MEF cells; assay type: cell-based, murine; conditions: cytosolic DNA
Experimental: Example 8: Immunoblot analysis: Equal amounts of proteins were resolved on sodium dodecyl sulfate (SDS)-Polyacrylamide gels and then transferred to polyvinylidene fluoride (PVDF) membranes (Millipore). After blocking with 5% Blocking Reagent, membranes were incubated with various primary antibodies (and appropriate secondary antibodies). The image was resolved using an enhanced chemiluminescence system ECL (Thermo Scientific) and detected by autoradiography (Kodak). Antibodies: rabbit polyclonal antibody against STING was developed in our laboratory as described previously in Ishikawa et al, 2008; other antibodies were obtained from following sources: β-actin (Sigma Aldrich), p-IRF3 (Cell Signaling), IRF3 (Santa Cruz Biotechnology), p-p65 (Cell Signaling), p65 (Cell Signaling), p-TBK1 (Cell Signaling), TBK1 (Abcam), cGAS (Cell Signaling).

N#Cc1c(NC(=O)c2ccccc2Cl)n(Cc2ccccc2)c2nc3ccccc3nc12 [Compound Y1, N-{1-benzyl-3-cyano-1H-pyrrolo[2,3-ß]quinoxalin-2-yl}-2-chlorobenzamide]
inhibition of activation of the type I IFN promoter (luciferase induction) (STING signaling [1]; 10 μM and 50 μM, ISD 3 μg/ml, 24 hours after transfection): inhibited activation of the type I IFN promoter; also recorded: exhibited inhibition of the activation of the type I IFN promoter
inhibitory activity of the type I IFN promoter (luciferase induction) (STING signaling [1]; 50 μM or 25 μM, in response to ISD): showed robust inhibitory activity of the type I IFN promoter
phosphorylation of TBK1, IRF3 and STING (Western blot) (STING signaling [2]): prevented the phosphorylation of either TBK1 or IRF3
